# According to PubChem BioAssay AID2060885 (Molecular Pharmacology Branch, DTP, NCI, 2025):
# Test system: NCI-H23 complex spheroids with HUVEC/MSC, viability
# Experiment: Anticancer human tumor NCI-H23 cell line growth inhibition [RAS];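 note: spheroids exposed to compound for 7 days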;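 for viability, T/C: 100% = DMSO vehicle control viability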
# Details: for IC50: curve of first compound; for viability, T/C: stronger effect = lower value
# Summary of the method: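 Multi-cell-type spheroids: tumor cells plus HUVEC endothelial cells and mesenchymal stem cells. RAS-pathway inhibitors were combined with targeted agents, each dosed in half-log steps down from clinical Cmax, or from 10 microM when Cmax was unknown.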
# [1] = second compound 0.00316 µM, first compound 0.0316 µM
# [2] = second compound 0.00316 µM, first compound 0.1 µM
# [3] = second compound 0.00316 µM, first compound 0.316 µM
# [4] = second compound 0.00316 µM, first compound 1 µM
# [5] = second compound 0.00316 µM, first compound 3.16 µM
# [6] = second compound 0.00316 µM, first compound 10 µM
# [7] = second compound 0.01 µM, first compound 0.0316 µM
# [8] = second compound 0.01 µM, first compound 0.1 µM
# [9] = second compound 0.01 µM, first compound 0.316 µM
# [10] = second compound 0.01 µM, first compound 1 µM
# [11] = second compound 0.01 µM, first compound 3.16 µM
# [12] = second compound 0.01 µM, first compound 10 µM
# [13] = second compound 0.0316 µM, first compound 0.0316 µM
# [14] = second compound 0.0316 µM, first compound 0.1 µM
# [15] = second compound 0.0316 µM, first compound 0.316 µM
# [16] = second compound 0.0316 µM, first compound 1 µM
# [17] = second compound 0.0316 µM, first compound 3.16 µM
# [18] = second compound 0.0316 µM, first compound 10 µM
# [19] = second compound 0.1 µM, first compound 0.0316 µM
# [20] = second compound 0.1 µM, first compound 0.1 µM
# [21] = second compound 0.1 µM, first compound 0.316 µM
# [22] = second compound 0.1 µM, first compound 1 µM
# [23] = second compound 0.1 µM, first compound 3.16 µM
# [24] = second compound 0.1 µM, first compound 10 µM
# [25] = second compound 0.316 µM, first compound 0.0316 µM
# [26] = second compound 0.316 µM, first compound 0.1 µM
# [27] = second compound 0.316 µM, first compound 0.316 µM
# [28] = second compound 0.316 µM, first compound 1 µM
# [29] = second compound 0.316 µM, first compound 3.16 µM
# [30] = second compound 0.316 µM, first compound 10 µM
# [31] = second compound 1 µM, first compound 0.0316 µM
# [32] = second compound 1 µM, first compound 0.1 µM
# [33] = second compound 1 µM, first compound 0.316 µM
# [34] = second compound 1 µM, first compound 1 µM
# [35] = second compound 1 µM, first compound 3.16 µM
# [36] = second compound 1 µM, first compound 10 µM
smiles,measurement,setting,value
Cc1nc(N2CCC3(CC2)COC(C)C3N)c(CO)nc1Sc1ccnc(N)c1Cl (centres undefined) + C=CC(=O)N1CCN(c2nc(OCC3CCCN3C)nc3c(F)c(-c4nc(N)cc(C)c4C(F)(F)F)c(Cl)cc23)C(C)C1,IC50,second compound 0.00316 µM,< 31.6 nM
same,IC50,second compound 0.01 µM,< 31.6 nM
same,IC50,second compound 0.0316 µM,< 31.6 nM
same,IC50,second compound 0.1 µM,< 31.6 nM
same,IC50,second compound 0.316 µM,< 31.6 nM
same,IC50,second compound 1 µM,< 31.6 nM
same,"viability, T/C",[1],47.4%
same,"viability, T/C",[2],48.5%
same,"viability, T/C",[3],32%
same,"viability, T/C",[4],27%
same,"viability, T/C",[5],31.7%
same,"viability, T/C",[6],25.4%
same,"viability, T/C",[7],44.3%
same,"viability, T/C",[8],42.3%
same,"viability, T/C",[9],26.7%
same,"viability, T/C",[10],28.5%
same,"viability, T/C",[11],22.6%
same,"viability, T/C",[12],16.4%
same,"viability, T/C",[13],36%
same,"viability, T/C",[14],33.6%
same,"viability, T/C",[15],24.7%
same,"viability, T/C",[16],26.7%
same,"viability, T/C",[17],21.1%
same,"viability, T/C",[18],20%
same,"viability, T/C",[19],37.2%
same,"viability, T/C",[20],35.5%
same,"viability, T/C",[21],25.8%
same,"viability, T/C",[22],23.9%
same,"viability, T/C",[23],19.7%
same,"viability, T/C",[24],17.2%
same,"viability, T/C",[25],31.1%
same,"viability, T/C",[26],31.6%
same,"viability, T/C",[27],30.2%
same,"viability, T/C",[28],23.2%
same,"viability, T/C",[29],23.3%
same,"viability, T/C",[30],17.5%
same,"viability, T/C",[31],36.6%
same,"viability, T/C",[32],32.8%
same,"viability, T/C",[33],26.6%
same,"viability, T/C",[34],18.6%
same,"viability, T/C",[35],22.7%
same,"viability, T/C",[36],17.9%
C[C@@H](NC(=O)c1ncnc(N)c1Cl)c1ncc(C(=O)Nc2cc(C(F)(F)F)c(Cl)cn2)s1 + C=CC(=O)N1CCN(c2nc(OCC3CCCN3C)nc3c(F)c(-c4nc(N)cc(C)c4C(F)(F)F)c(Cl)cc23)C(C)C1,IC50,second compound 0.00316 µM,> 10000 nM
same,IC50,second compound 0.01 µM,201 nM
same,IC50,second compound 0.0316 µM,< 31.6 nM
same,IC50,second compound 0.1 µM,< 31.6 nM
same,IC50,second compound 0.316 µM,< 31.6 nM
same,IC50,second compound 1 µM,< 31.6 nM
same,"viability, T/C",[1],72.2%
same,"viability, T/C",[2],79.4%
same,"viability, T/C",[3],61.5%
same,"viability, T/C",[4],63.1%
same,"viability, T/C",[5],63.2%
same,"viability, T/C",[6],59.6%
same,"viability, T/C",[7],60.9%
same,"viability, T/C",[8],53.3%
same,"viability, T/C",[9],47.8%
same,"viability, T/C",[10],44.7%
same,"viability, T/C",[11],45.8%
same,"viability, T/C",[12],52.4%
same,"viability, T/C",[13],43.6%
same,"viability, T/C",[14],49%
same,"viability, T/C",[15],38.9%
same,"viability, T/C",[16],38.6%
same,"viability, T/C",[17],42%
same,"viability, T/C",[18],40.4%
same,"viability, T/C",[19],43.3%
same,"viability, T/C",[20],46.5%
same,"viability, T/C",[21],36.2%
same,"viability, T/C",[22],42.2%
same,"viability, T/C",[23],45.9%
same,"viability, T/C",[24],39.1%
same,"viability, T/C",[25],42.1%
same,"viability, T/C",[26],37.3%
same,"viability, T/C",[27],40.8%
same,"viability, T/C",[28],40.6%
same,"viability, T/C",[29],42.7%
same,"viability, T/C",[30],41%
same,"viability, T/C",[31],36.4%
same,"viability, T/C",[32],44.4%
same,"viability, T/C",[33],45.4%
same,"viability, T/C",[34],42%
same,"viability, T/C",[35],43.6%
same,"viability, T/C",[36],40.5%
